# Measurements as given in patent US20230085307A1, “PYRIDAZINONE COMPOUND AND HERBICIDE” (NISSAN CHEMICAL CORPORATION, priority 2019, published 2023).
# How the values were obtained:
# [1] = test system: redroot pigweed; experiment: Test Example 4: herbicidal effect by soil treatment (Table 19, symbol N); assay type: in vivo, redroot pigweed (Amaranthus retroflexus)
# Method in brief: (§1)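 Seeds were sown in sterilized diluvial soil and covered with about 1.5 cm of soil. An emulsion formulation diluted with water to a predetermined herbicide amount was sprayed evenly onto the soil surface. Plants grew in a greenhouse at 25° C. to 30° C., and the effect was scored three weeks after application using criteria from an earlier test.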
# [2] = test system: barnyard grass; experiment: Test Example 4: herbicidal effect by soil treatment (Table 19, symbol H); assay type: in vivo, barnyard grass (Echinochloa crus-galli)
# Method in brief: as §1
# [3] = test system: velvetleaf; experiment: Test Example 4: herbicidal effect by soil treatment (Table 19, symbol M); assay type: in vivo, velvetleaf (Abutilon theophrasti)
# Method in brief: as §1
# [4] = test system: wild oat; experiment: Test Example 4: herbicidal effect by soil treatment (Table 19, symbol I); assay type: in vivo, wild oat (Avena fatua)
# Method in brief: as §1
# [5] = test system: blackgrass; experiment: Test Example 4: herbicidal effect by soil treatment (Table 19, symbol J); assay type: in vivo, blackgrass (Alopecurus myosuroides)
# Method in brief: as §1
# [6] = test system: persian speedwell; experiment: Test Example 4: herbicidal effect by soil treatment (Table 19, symbol R); assay type: in vivo, Persian speedwell (Veronica persica)
# Method in brief: as §1
# [7] = test system: windgrass; experiment: Test Example 5: herbicidal effect by foliage application, plastic box (Table 20, symbol L); assay type: in vivo, windgrass (Apera spica-venti); conditions: foliage application, evaluated three weeks after application; for L: windgrass, herbicidal effect (criteria 0-5): AAH 320 g/ha; for herbicidal effect on L: windgrass: 320 g/ha
# Method in brief: (§2)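 Plants sown in sterilized diluvial soil and grown 14 days in a greenhouse at 25° C to 30° C, then sprayed on the foliage with the compound's emulsion diluted in water to a predetermined herbicide amount. Injury to weeds and crops scored three weeks after application on a visual rating scale.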
# [8] = test system: oval-leafed pondweed; experiment: Test Example 2: herbicidal activity, application during weed generation under submerged conditions (Table 17, symbol C); assay type: in vivo, oval-leafed pondweed (Monochoria vaginalis); conditions: AAH 320 g/ha; application during weed generation, submerged conditions
# Method in brief: (§3)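 Effect on each weed is rated three weeks post-treatment, using the same scoring criteria as the preceding test. Plants grow from mixed-sown seed in flooded alluvial soil (4 cm water) at 25° C. to 30° C., and are treated at one to two leaves with diluted emulsion dropped onto the water.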
# [9] = test system: chickweed; experiment: Test Example 5: herbicidal effect by foliage application, plastic box (Table 20, symbol P); assay type: in vivo, common chickweed (Stellaria media); conditions: foliage application, evaluated three weeks after application; for P: chickweed, herbicidal effect (criteria 0-5): AAH 320 g/ha; for herbicidal effect on P: chickweed: 320 g/ha
# Method in brief: as §2
# [10] = test system: persian speedwell; experiment: Test Example 5: herbicidal effect by foliage application, plastic box (Table 20, symbol R); assay type: in vivo, Persian speedwell (Veronica persica); conditions: foliage application, evaluated three weeks after application; for R: persian speedwell, herbicidal effect (criteria 0-5): AAH 320 g/ha; for herbicidal effect on R: persian speedwell: 320 g/ha
# Method in brief: as §2
# [11] = test system: late watergrass; experiment: Test Example 2: herbicidal activity, application during weed generation under submerged conditions (Table 17, symbol A); assay type: in vivo, late watergrass (Echinochloa oryzicola); conditions: AAH 320 g/ha; application during weed generation, submerged conditions
# Method in brief: as §3
# [12] = test system: redroot pigweed; experiment: Test Example 5: herbicidal effect by foliage application, plastic box (Table 20, symbol N); assay type: in vivo, redroot pigweed (Amaranthus retroflexus); conditions: foliage application, evaluated three weeks after application; for N: redroot pigweed, herbicidal effect (criteria 0-5): AAH 320 g/ha; for herbicidal effect on N: redroot pigweed: 320 g/ha
# Method in brief: as §2
# [13] = test system: southern crabgrass; experiment: Test Example 4: herbicidal effect by soil treatment (Table 19, symbol F); assay type: in vivo, southern crabgrass (Digitaria ciliaris)
# Method in brief: as §1
# [14] = test system: green foxtail; experiment: Test Example 4: herbicidal effect by soil treatment (Table 19, symbol G); assay type: in vivo, green foxtail (Setaria viridis)
# Method in brief: as §1
# [15] = test system: barnyard grass; experiment: Test Example 5: herbicidal effect by foliage application, plastic box (Table 20, symbol H); assay type: in vivo, barnyard grass (Echinochloa crus-galli); conditions: foliage application, evaluated three weeks after application; for H: barnyard grass, herbicidal effect (criteria 0-5): AAH 320 g/ha; for herbicidal effect on H: barnyard grass: 320 g/ha
# Method in brief: as §2
# [16] = test system: Japanese bulrush; experiment: Test Example 2: herbicidal activity, application during weed generation under submerged conditions (Table 17, symbol B); assay type: in vivo, Japanese bulrush (Schoenoplectus juncoides); conditions: AAH 320 g/ha; application during weed generation, submerged conditions
# Method in brief: as §3
# [17] = amount of applied herbicide 320 g/ha
Compound,"herbicidal effect on N: redroot pigweed [1, 17]","herbicidal effect on H: barnyard grass [2, 17]","herbicidal effect on M: velvetleaf [3, 17]","herbicidal effect on I: wild oat [4, 17]","herbicidal effect on J: blackgrass [5, 17]","herbicidal effect on R: persian speedwell [6, 17]","L: windgrass, herbicidal effect (criteria 0-5) [7]","herbicidal effect rating, C: oval-leafed pondweed [8]","P: chickweed, herbicidal effect (criteria 0-5) [9]","R: persian speedwell, herbicidal effect (criteria 0-5) [10]","herbicidal effect rating, A: late watergrass [11]","N: redroot pigweed, herbicidal effect (criteria 0-5) [12]","herbicidal effect on F: southern crabgrass [13, 17]","herbicidal effect on G: green foxtail [14, 17]","H: barnyard grass, herbicidal effect (criteria 0-5) [15]","herbicidal effect rating, B: Japanese bulrush [16]",herbicidal effect on L: windgrass [7],herbicidal effect on P: chickweed [9],herbicidal effect on R: persian speedwell [10],herbicidal effect on N: redroot pigweed [12],also measured
CCCC(=O)Oc1c(C)nn(C)c(=O)c1-c1c(-c2ccc(SC3CC3)cc2)sc2ccc(F)cc12 [2-255],4 (Herbicidal rate of 70% or more and less than 90%),0 (Herbicidal rate of 5% or less (almost no effect)),3 (Herbicidal rate of 40% or more and less than 70%),0 (Herbicidal rate of 5% or less (almost no effect)),1 (Herbicidal rate of 5% or more and less than 20%),5 (Herbicidal rate of 90% or more (almost completely withered)),5 (Herbicidal rate of 90% or more (almost completely withered)),2 (Herbicidal rate of 20% or more and less than 40%),5 (Herbicidal rate of 90% or more (almost completely withered)),5 (Herbicidal rate of 90% or more (almost completely withered)),4 (Herbicidal rate of 70% or more and less than 90%),5 (Herbicidal rate of 90% or more (almost completely withered)),0 (Herbicidal rate of 5% or less (almost no effect)),1 (Herbicidal rate of 5% or more and less than 20%),5 (Herbicidal rate of 90% or more (almost completely withered)),3 (Herbicidal rate of 40% or more and less than 70%),–,–,–,–,–
Cc1nn(C)c(=O)c(-c2c(-c3ccc(OC(F)F)cc3)sc3ccc(F)cc23)c1OC(=O)COc1ccccc1 [2-284],5 (Herbicidal rate of 90% or more (almost completely withered)),5 (Herbicidal rate of 90% or more (almost completely withered)),5 (Herbicidal rate of 90% or more (almost completely withered)),3 (Herbicidal rate of 40% or more and less than 70%),5 (Herbicidal rate of 90% or more (almost completely withered)),5 (Herbicidal rate of 90% or more (almost completely withered)),4 (Herbicidal rate of 70% or more and less than 90%),3 (Herbicidal rate of 40% or more and less than 70%),5 (Herbicidal rate of 90% or more (almost completely withered)),5 (Herbicidal rate of 90% or more (almost completely withered)),3 (Herbicidal rate of 40% or more and less than 70%),5 (Herbicidal rate of 90% or more (almost completely withered)),4 (Herbicidal rate of 70% or more and less than 90%),5 (Herbicidal rate of 90% or more (almost completely withered)),5 (Herbicidal rate of 90% or more (almost completely withered)),3 (Herbicidal rate of 40% or more and less than 70%),–,–,–,–,–
CCCC(=O)Oc1c(C)nn(C)c(=O)c1-c1c(-c2ccc(Cl)cc2)sc2ccc(Cl)cc12 [2-100],–,–,–,–,–,–,–,0 (Herbicidal rate of 5% or less (almost no effect)),–,–,3 (Herbicidal rate of 40% or more and less than 70%),–,–,–,–,0 (Herbicidal rate of 5% or less (almost no effect)),5 (Herbicidal rate of 90% or more (almost completely withered)),5 (Herbicidal rate of 90% or more (almost completely withered)),5 (Herbicidal rate of 90% or more (almost completely withered)),5 (Herbicidal rate of 90% or more (almost completely withered)),"N: redroot pigweed, herbicidal effect rating [1, 17]: 4 (Herbicidal rate of 70% or more and less than 90%); H: barnyard grass, herbicidal effect rating [2, 17]: 0 (Herbicidal rate of 5% or less (almost no effect)); M: velvetleaf, herbicidal effect rating [3, 17]: 0 (Herbicidal rate of 5% or less (almost no effect)); I: wild oat, herbicidal effect rating [4, 17]: 0 (Herbicidal rate of 5% or less (almost no effect)); J: blackgrass, herbicidal effect rating [5, 17]: 0 (Herbicidal rate of 5% or less (almost no effect)); R: persian speedwell, herbicidal effect rating [6, 17]: 1 (Herbicidal rate of 5% or more and less than 20%); F: southern crabgrass, herbicidal effect rating [13, 17]: 0 (Herbicidal rate of 5% or less (almost no effect)); G: green foxtail, herbicidal effect rating [14, 17]: 0 (Herbicidal rate of 5% or less (almost no effect)); herbicidal effect on H: barnyard grass [15]: 5 (Herbicidal rate of 90% or more (almost completely withered))"
Cc1nn(C)c(=O)c(-c2c(-c3ccc(OCc4ccccc4)cc3)sc3ccc(F)cc23)c1O [2-062],–,–,–,–,–,–,–,2 (Herbicidal rate of 20% or more and less than 40%),–,–,0 (Herbicidal rate of 5% or less (almost no effect)),–,–,–,–,3 (Herbicidal rate of 40% or more and less than 70%),4 (Herbicidal rate of 70% or more and less than 90%),5 (Herbicidal rate of 90% or more (almost completely withered)),5 (Herbicidal rate of 90% or more (almost completely withered)),5 (Herbicidal rate of 90% or more (almost completely withered)),"herbicidal effect rating, N: redroot pigweed ([1]; 320 g/ha): 4 (Herbicidal rate of 70% or more and less than 90%); herbicidal effect rating, H: barnyard grass ([2]; 320 g/ha): 0 (Herbicidal rate of 5% or less (almost no effect)); herbicidal effect rating, M: velvetleaf ([3]; 320 g/ha): 1 (Herbicidal rate of 5% or more and less than 20%); herbicidal effect rating, I: wild oat ([4]; 320 g/ha): 0 (Herbicidal rate of 5% or less (almost no effect)); herbicidal effect rating, J: blackgrass ([5]; 320 g/ha): 0 (Herbicidal rate of 5% or less (almost no effect)); herbicidal effect rating, R: persian speedwell ([6]; 320 g/ha): 3 (Herbicidal rate of 40% or more and less than 70%); herbicidal effect rating, F: southern crabgrass ([13]; 320 g/ha): 1 (Herbicidal rate of 5% or more and less than 20%); herbicidal effect rating, G: green foxtail ([14]; 320 g/ha): 3 (Herbicidal rate of 40% or more and less than 70%); herbicidal effect on H: barnyard grass [15]: 5 (Herbicidal rate of 90% or more (almost completely withered))"
